Test results: patent US9045445B2, “Glycine transporter-1 inhibitors, methods of making them, and uses thereof” (Albany Molecular Research, Inc., priority 2010, dated 2015)
Counter-ions that a name gives are not always drawn.

molecular target: T1, glycine transporter-1 (GlyT-1) (Homo sapiens, UniProt P48067); assay: [14C]glycine uptake assay in JAR cells endogenously expressing GlyT-1 (scintillation proximity); type: cell-based; settings: JAR cells, [14C]glycine 5 μM, 3 hour incubation; read-out: GlyT-1 IC50
T1 construct: JAR cells (ATCC#HTB-144), which endogenously express GlyT-1; host or cells: JAR human choriocarcinoma cells
T1 sequence (P48067 1-706): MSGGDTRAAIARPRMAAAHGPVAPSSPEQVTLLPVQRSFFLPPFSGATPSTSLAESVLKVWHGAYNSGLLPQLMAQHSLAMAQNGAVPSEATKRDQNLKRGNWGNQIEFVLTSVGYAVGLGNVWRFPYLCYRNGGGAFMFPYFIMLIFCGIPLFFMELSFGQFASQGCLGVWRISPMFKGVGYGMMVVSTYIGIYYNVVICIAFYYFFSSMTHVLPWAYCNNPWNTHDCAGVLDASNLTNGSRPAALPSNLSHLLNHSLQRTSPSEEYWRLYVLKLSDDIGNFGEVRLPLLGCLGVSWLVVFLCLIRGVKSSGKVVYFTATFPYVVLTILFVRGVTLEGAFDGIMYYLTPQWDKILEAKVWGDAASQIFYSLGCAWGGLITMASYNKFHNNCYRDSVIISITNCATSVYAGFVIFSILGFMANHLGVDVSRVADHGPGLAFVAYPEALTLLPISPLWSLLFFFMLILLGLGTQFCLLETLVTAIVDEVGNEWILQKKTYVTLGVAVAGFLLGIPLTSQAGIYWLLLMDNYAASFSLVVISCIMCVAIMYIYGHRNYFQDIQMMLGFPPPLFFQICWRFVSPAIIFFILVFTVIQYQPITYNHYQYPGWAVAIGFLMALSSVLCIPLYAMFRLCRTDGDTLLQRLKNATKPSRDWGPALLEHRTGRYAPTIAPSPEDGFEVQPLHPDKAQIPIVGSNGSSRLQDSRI
Experimental: The inhibitory activity of compounds of the invention against the glycine transporter-1 (GlyT-1) can be determined by the following scintillation proximity assay. The potency of each compound was assessed in inhibiting the uptake of radiolabeled glycine ([^14C]glycine) using the human choriocarcinoma cell line, JAR cells (ATCC#HTB-144), which endogenously express GlyT-1. In brief, 50,000 JARS cells were plated per well of tissue culture treated 96-well Cytostar-T plate (PerkinElmer) in RPMI media supplemented with 10% heat inactivated FBS and allowed to attach overnight at 37° C. and 5% CO2. Compounds were serially diluted 3-fold in DMSO generating a nine (9) data point response curve for each compound. Two replicates were performed per determination. The compounds were then diluted into Uptake Buffer (10 mM Hepes, 120 mM NaCl, 2 mM KCl, 1 mM CaCl2 and 1 mM MgCl2, 5 mM Alanine, pH 7.4) with a final DMSO concentration of 0.75% (v/v). Following the overnight incubation, the media was replaced with Uptake Buffer in the presence or absence of diluted compound and pre-incubated at room temperature for 10 minutes prior to the addition of [^14C]glycine at a final concentration of 5 μM. Following a 3 hour incubation period at 37° C. and 5% CO2, the plates were sealed and placed at room temperature in the dark for 15 minutes prior to quantification of incorporated radioactivity using a MicroBeta Trilux scintillation plate reader (PerkinElmer). Data were fit into a four-parameter model to determine the inhibitor concentration at half-maximal response (IC50). The assay window was established by control wells incubated with [^14C]glycine in the presence or absence of 10 mM non-labeled glycine. A dose response curve for a synthesized reference standard was generated on every plate as a positive control.

Compound	IC50
CCS(=O)(=O)N1CCN(C2(CNC(=O)c3ccc(C(F)(F)F)cc3C(F)(F)F)CCC(F)(F)CC2)C(C)C1 (racemic) [compound 218, (±)-N-((1-(4-(Ethylsulfonyl)-2-methylpiperazin-1-yl)-4,4-difluorocyclohexyl)methyl)-2,4-bis(trifluoromethyl) benzamide Hydrochloride]	86 nM
CC(O)CS(=O)(=O)N1CCN(C2(CNC(=O)c3ccc(C(F)(F)F)cc3Cl)CCC(F)(F)CC2)CC1 (single isomer, unassigned; enantiomer b) [compound 279, (Enantiomer B)-2-Chloro-N-((4,4-difluoro-1-(4-(2-hydroxypropylsulfonyl)piperazin-1-yl)cyclohexyl)methyl)-4-(trifluoromethyl) benzamide Hydrochloride]	68 nM
CCCS(=O)(=O)N1CCN(C2(CNC(=O)c3c(C)cccc3OC)CCCCC2)CC1 [compound 3, 2-Methoxy-6-methyl-N-((1-(4-(propylsulfonyl)piperazin-1-yl)cyclohexyl)methyl) benzamide Hydrochloride]	541 nM
CCCS(=O)(=O)N1CCN(C2(CNC(=O)c3ccc(F)cc3C)CCCCC2)CC1 [compound 10, 4-Fluoro-2-methyl-N-((1-(4-(propylsulfonyl)piperazin-1-yl)cyclohexyl)methyl) benzamide Hydrochloride]	28 nM
CCCS(=O)(=O)N1CCN(C2(CNC(=O)c3c(F)cccc3F)CCCCC2)CC1 [compound 16, 2,6-Difluoro-N-((1-(4-(propylsulfonyl)piperazin-1-yl)cyclohexyl)methyl) benzamide Hydrochloride]	23 nM
CCCS(=O)(=O)N1CCN(C2(CNC(=O)c3ccc(Cl)c(Cl)c3)CCCCC2)CC1 [compound 26, 3,4-Dichloro-N-((1-(4-(propylsulfonyl)piperazin-1-yl)cyclohexyl)methyl) benzamide Hydrochloride]	245 nM
CCCS(=O)(=O)N1CCN(C2(CNC(=O)c3ccc(C)c(Cl)c3)CCCCC2)CC1 [compound 31, 3-Chloro-4-methyl-N-((1-(4-(propylsulfonyl)piperazin-1-yl)cyclohexyl)methyl) benzamide Hydrochloride]	590 nM
CCCS(=O)(=O)N1CCN(C2(CNC(=O)c3ccc(C(C)C)cc3)CCCCC2)CC1 [compound 33, 4-Isopropyl-N-((1-(4-(propylsulfonyl)piperazin-1-yl)cyclohexyl)methyl) benzamide Hydrochloride]	488 nM
CCCS(=O)(=O)N1CCN(C2(CNC(=O)c3ccccc3-c3ccccc3)CCCCC2)CC1 [compound 34, N-((1-(4-(Propylsulfonyl)piperazin-1-yl)cyclohexyl)methyl) biphenyl-2-carboxamide Hydrochloride]	646 nM
CCCS(=O)(=O)N1CCN(C2(CNC(=O)c3ccc(C)c(C)c3)CCCCC2)CC1 [compound 35, 3,4-Dimethyl-N-((1-(4-(propylsulfonyl)piperazin-1-yl)cyclohexyl)methyl) benzamide Hydrochloride]	1070 nM
CCCS(=O)(=O)N1CCN(C2(CNC(=O)c3cccc(C)c3)CCCCC2)CC1 [compound 37, 3-Methyl-N-((1-(4-(propylsulfonyl)piperazin-1-yl)cyclohexyl)methyl) benzamide Hydrochloride]	1140 nM
CCCS(=O)(=O)N1CCN(C2(CNC(=O)c3ccccc3OC)CCCCC2)CC1 [compound 40, 2-Methoxy-N-((1-(4-(propylsulfonyl)piperazin-1-yl)cyclohexyl)methyl) benzamide Hydrochloride]	629 nM
CCCS(=O)(=O)N1CCN(C2(CNC(=O)c3c(Cl)cccc3Cl)CCCCC2)CC1 [compound 43, 2,6-Dichloro-N-((1-(4-(propylsulfonyl)piperazin-1-yl)cyclohexyl)methyl) benzamide Hydrochloride]	12 nM
CCCS(=O)(=O)N1CCN(C2(CNC(=O)c3ccc(C)cc3)CCCCCC2)CC1 [compound 57, 4-Methyl-N-((1-(4-(propylsulfonyl)piperazin-1-yl)cycloheptyl)methyl) benzamide Hydrochloride]	887 nM
CCCS(=O)(=O)N1CCN(C2(CNC(=O)c3ccc(OC)cc3)CCCCCC2)CC1 [compound 67, 4-Methoxy-N-((1-(4-(propylsulfonyl)piperazin-1-yl)cycloheptyl)methyl) benzamide Hydrochloride]	863 nM
CCCS(=O)(=O)N1CCN(C2(CNC(=O)c3ccc(Cl)cc3)CCCC2)CC1 [compound 73, 4-Chloro-N-((1-(4-(propylsulfonyl)piperazin-1-yl)cyclopentyl)methyl) benzamide Hydrochloride]	1990 nM
CCCS(=O)(=O)N1CCN(C2(CNC(=O)c3ccc(Cl)c(Cl)c3)CCCC2)CC1 [compound 76, 3,4-Dichloro-N-((1-(4-(propylsulfonyl)piperazin-1-yl)cyclopentyl)methyl) benzamide Hydrochloride]	1820 nM
CCCS(=O)(=O)N1CCN(C2(CNC(=O)c3c(N)cccc3Cl)CCC2)CC1 [compound 78, 2-Amino-6-chloro-N-((1-(4-(propylsulfonyl)piperazin-1-yl)cyclobutyl)methyl) benzamide Hydrochloride]	2440 nM
CCCS(=O)(=O)N1CCN(C2(CNC(=O)c3ccccc3F)CCC(F)(F)CC2)CC1 [compound 131, N-((4,4-Difluoro-1-(4-(propylsulfonyl)piperazin-1-yl)cyclohexyl)methyl)-2-fluorobenzamide Hydrochloride]	291 nM
CCCS(=O)(=O)N1CCN(C2(CNC(=O)c3ccccc3C)CCC(F)(F)CC2)CC1 [compound 134, N-((4,4-Difluoro-1-(4-(propylsulfonyl)piperazin-1-yl)cyclohexyl)methyl)-2-methylbenzamide Hydrochloride]	70 nM
CCCS(=O)(=O)N1CCN(C2(CNC(=O)c3ccc(F)cc3F)CCC(F)(F)CC2)CC1 [compound 140, N-((4,4-Difluoro-1-(4-(propylsulfonyl)piperazin-1-yl)cyclohexyl)methyl)-2,4-difluorobenzamide Hydrochloride]	195 nM
CCCS(=O)(=O)N1CCN(C2(CNC(=O)c3ccccc3OC(F)F)CCC(F)(F)CC2)CC1 [compound 142, N-((4,4-Difluoro-1-(4-(propylsulfonyl)piperazin-1-yl)cyclohexyl)methyl)-2-(difluoromethoxy) benzamide Hydrochloride]	158 nM
CCCS(=O)(=O)N1CCN(C2(CNC(=O)c3ccc(Cl)cc3F)CCC(F)(F)CC2)CC1 [compound 143, 4-Chloro-N-((4,4-difluoro-l-(4-(propylsulfonyl)piperazin-1-yl)cyclohexyl)methyl)-2-fluorobenzamide Hydrochloride]	137 nM
CCCS(=O)(=O)N1CCN(C2(CNC(=O)c3c(F)cc(F)cc3F)CCC(F)(F)CC2)CC1 [compound 144, N-((4,4-Difluoro-1-(4-(propylsulfonyl)piperazin-1-yl)cyclohexyl)methyl)-2,4,6-trifluorobenzamide Hydrochloride]	46 nM
CCCS(=O)(=O)N1CCN(C2(CNC(=O)c3ccc(F)cc3C)CCC(F)(F)CC2)CC1 [compound 145, N-((4,4-Difluoro-1-(4-(propylsulfonyl)piperazin-1-yl)cyclohexyl)methyl)-4-fluoro-2-methylbenzamide Hydrochloride]	52 nM
CCCS(=O)(=O)N1CCN(C2(CNC(=O)c3c(C)cccc3C)CCC(F)(F)CC2)CC1 [compound 146, N-((4,4-Difluoro-1-(4-(propylsulfonyl)piperazin-1-yl)cyclohexyl)methyl)-2,6-dimethylbenzamide Hydrochloride]	30 nM
CCCS(=O)(=O)N1CCN(C2(CNC(=O)c3c(C)cccc3F)CCC(F)(F)CC2)CC1 [compound 147, N-((4,4-Difluoro-1-(4-(propylsulfonyl)piperazin-1-yl)cyclohexyl)methyl)-2-fluoro-6-methyl-benzamide Hydrochloride]	31 nM
